Experimental data from US20240287070A1, “FUSED HETEROCYCLIC DERIVATIVES” (Janssen Sciences Ireland Unlimited Company, priority 2021, published 2024).

Columns and labels:
[1] = test system: HBV (HepG2.117 cell line, inducibly HBV producing); test: Anti-HBV activity, intracellular HBV DNA by real-time PCR in HepG2.117 cell line; type: cell-based, hepatitis B virus; conditions: HepG2.117 cells, 3 days of treatment
Procedure: The anti HBV activity was measured using the HepG2.117 cell line, a stable, inducibly HBV producing cell line, which replicates HBV in the absence of doxycycline (Tet-off system). The HepG2 cell line is available from ATCCR under number HB-8065. Transfection of the HepG2 cell line can be as described in Sun and Nassal 2006 Journal of Hepatology 45 (2006) 636-645 “Stable HepG2- and Huh7-based human hepatoma cell lines for efficient regulated expression of infectious hepatitis B virus”.
For the antiviral assay, HBV replication was induced, followed by a treatment with serially diluted compound in 96-well plates. After 3 days of treatment, the antiviral activity was determined by quantification of intracellular HBV DNA using real-time PCR and an HBV specific primer set and probe.

[2] = Cytotoxicity, ATPlite Luminescence Assay; type: cell-based, human; conditions: human, HepG2 or HepG2.117 cells, 3-days incubation unless marked with *
Procedure: Cytotoxicity of the compounds was tested using HepG2 or HepG2.117 cells, incubated for 3 or 4 days in the presence of compounds. The viability of the cells was assessed using the PERKIN ELMER ATPlite Luminescence Assay System.”

[3] = Human liver microsome stability; type: in vitro ADME; conditions: 1 μM compound, NADPH 1 mM, 37° C., 0-60 min; for half-life at 1 μM: human, pooled human liver microsomes, pH 7.4, pooled human liver microsomes 0.5 mg/mL, read-out: HLM Metabolism t1/2
Procedure: Human Liver Microsome Stability t½ (Min) of Compounds of Formula (I) […] All incubations are performed singularly for each compound. NADPH was added to initiate the reaction with the final concentration of 1 mM and the final incubation volume of 400 μL. At 6 time points (0, 5, 10, 20, 40 and 60 min) reactions were stopped by the removal of 50 μL of the incubation mixture into plates containing acetonitrile at a of 1:3 (v:v). The plates were centrifuged at 3000 rpm for 10 min at 4° C. to precipitate the protein. Following protein precipitation, the sample supernatants were combined in cassettes of up to 8 compounds. The internal standard was added (1:1 supernatant to internal standard solution) and samples were analyzed using standard LC-MS conditions. From a plot of ln peak area ratio (compound peak area/internal standard peak area) against time, the gradient of the line is determined. Subsequently, half-life is calculated using the equations below: Elimination rate constant (k)=(−gradient) […]

[4] = Hepatitis B virus, HepG2.117, 72 h

Compound	EC50 [1] [µM]	CC50 at 3 days [2] [µM]	HLM Metabolism t1/2 ([3]; pooled human liver microsomes 0.5 mg/mL) [h]	half-life at 1 μM [3] [h]	EC50 [1, 4] [µM]
CC(c1ccc(-c2ccn(C)n2)cc1)N1C[C@@H](C)n2nc3c(c2C1=O)CN(C(=O)c1ccc(Cl)c(C#N)c1)[C@H](C)C3 (single isomer, unassigned) [Compound 21A, 2-Chloro-5-((3R,7R)-3,7-dimethyl-9-((R*)-1-(4-(1-methyl-1H-pyrazol-3-yl)phenyl)ethyl)-10-oxo-1,2,3,4,7,8,9,10-octahydropyrido[4′,3′:3,4]pyrazolo[1,5-a]pyrazine-2-carbonyl)benzonitrile]	0.035	> 50	0.98		
CC(c1nnc(C2CC2)o1)N1C[C@@H](C)n2nc3c(c2C1=O)CN(C(=O)c1ccc(Cl)c(Cl)c1)[C@H](C)C3 (single isomer, unassigned) [Compound 44A, (3R,7R)-9-((R*)-1-(5-cyclopropyl-1,3,4-oxadiazol-2-yl)ethyl)-2-(3,4-dichlorobenzoyl)-3,7-dimethyl-1,2,3,4,8,9-hexahydropyrido[4′,3′:3,4]pyrazolo[1,5-a]pyrazin-10(7H)-one]	0.22	> 50		> 3	
Cc1ncnn1-c1ccc([C@H](C)N2C[C@@H](C)n3nc4c(c3C2=O)CN(C(=O)c2ccc(Cl)c(Cl)c2)[C@H](C)C4)cn1 (relative stereo) [Compound 25B, (3R,7R)-2-(3,4-dichlorobenzoyl)-3,7-dimethyl-9-((S*)-1-(6-(5-methyl-11H-1,2,4-triazol-1-yl)pyridin-3-yl)ethyl)-1,2,3,4,8,9-hexahydropyrido[4′,3′:3,4]pyrazolo[1,5-a]pyrazin-10(7H)-one]		> 50		1.49	0.017
CN=[S@@](C)(=O)c1ccc([C@H](C)N2C[C@@H](C)n3nc4c(c3C2=O)CN(C(=O)c2ccc(Cl)c(Cl)c2)[C@H](C)C4)cn1 (relative stereo) [Compound 29D, (3R,7R)-2-(3,4-dichlorobenzoyl)-9-((S*)-1-(6-((S*)—N,S-dimethylsulfonimidoyl)pyridin-3-yl)ethyl)-3,7-dimethyl-1,2,3,4,8,9-hexahydropyrido[4′,3′:3,4]pyrazolo[1,5-a]pyrazin-10(7H)-one]		> 50		1.25	0.059
CC(c1ccc(C(C)(C)O)nc1)N1C[C@@H](C)n2nc3c(c2C1=O)CN(C(=O)c1ccc(Cl)c(F)c1)[C@H](C)C3 (single isomer, unassigned) [Compound 59A, (3R,7R)-2-(4-chloro-3-fluorobenzoyl)-9-((R*)-1-(6-(2-hydroxypropan-2-yl)pyridin-3-yl)ethyl)-3,7-dimethyl-1,2,3,4,8,9-hexahydropyrido[4′,3′:3,4]pyrazolo[1,5-a]pyrazin-10(7H)-one]	0.51	> 50		> 3	
CN=[S@](C)(=O)c1ccc([C@H](C)N2C[C@@H](C)n3nc4c(c3C2=O)CN(C(=O)c2ccc(Cl)c(Cl)c2)[C@H](C)C4)cn1 (relative stereo) [Compound 29C, (3R,7R)-2-(3,4-dichlorobenzoyl)-9-((S*)-1-(6-((R*)—N,S-dimethylsulfonimidoyl)pyridin-3-yl)ethyl)-3,7-dimethyl-1,2,3,4,8,9-hexahydropyrido[4′,3′:3,4]pyrazolo[1,5-a]pyrazin-10(7H)-one]		> 50		1.43	0.051
Cc1nnc(C(C)N2C[C@@H](C)n3nc4c(c3C2=O)CN(C(=O)c2ccc(Cl)c(Cl)c2)[C@H](C)C4)o1 (single isomer, unassigned) [Compound 43A, (3R,7R)-2-(3,4-dichlorobenzoyl)-3,7-dimethyl-9-((R*)-1-(5-methyl-1,3,4-oxadiazol-2-yl)ethyl)-1,2,3,4,8,9-hexahydropyrido[4′,3′:3,4]pyrazolo[1,5-a]pyrazin-10(7H)-one]	0.31	> 50		> 3	
